# Measured values as given in patent publication US20230310377A1, “METHODS OF TREATING LYSOSOMAL STORAGE DISEASES AND METHODS RELATED THERETO” (RECURSION PHARMACEUTICALS, INC., priority 2020, published 2023).
# How the values were obtained:
# Format in all cases: cell-based
# [1] = test system: Sandhoff (HEXB) disease and Tay-Sachs (HEXA) disease patient fibroblasts; experiment: GM2 ganglioside accumulation (immunofluorescence) in Sandhoff and Tay-Sachs patient fibroblasts; conditions: Homo sapiens, Fibroblast
# Method: (§1) Healthy, Sandhoff (HEXB) disease, and Tay-Sachs (HEXA) disease patient fibroblasts were plated and treated with ruboxistaurin mesylate twice over 17 days. At day 0 cells were seeded. On day 5 the media was changed and initial dose of the compound was delivered. On day 10 the media was changed again and the second dose of the compound was delivered. On day 17 the cells were fixed, immunoflourescence-labeled, and imaged for GM2 (see FIG. 1). […] FIGS. 2A-1 and 3A depict the dose response for two separate experiments. FIGS. 2B-1 and 3B depict mean fluorescence or mean aggregate count for each experiment±SEM of technical replicates, combining 3-5 patient lines for each group. n=12-40 images from two well replicates imaged at 4-sites per well for each line at each dose. Data in each panel represents n=1 experiment performed. FIGS. 2C and 3C depict nuclei per image from the same image sets.
# (§2) The same experiment was performed for each of sotrastaurin, enzastaurin, LY2090314, AZD1080, and AZD2858. FIG. 2A-2 depicts the dose response for sotrastaurin. FIG. 2A-3 depicts the dose response for enzastaurin.
# EC50 calculations were based on GM2 aggregate counts (not mean fluorescence).
# The leftmost concentration in all graphs is DMSO control.
# [2] = test system: Sandhoff (HEXB) disease patient fibroblasts; experiment: GM2 ganglioside accumulation in Sandhoff (HEXB) patient fibroblasts; conditions: Homo sapiens, Fibroblast, read-out: GM2 ganglioside ED50 for HEXB
# Method: as §1, §2
# [3] = test system: Tay-Sachs (HEXA) disease patient fibroblasts; experiment: GM2 ganglioside accumulation in Tay-Sachs (HEXA) patient fibroblasts; conditions: Homo sapiens, Fibroblast, read-out: GM2 ganglioside ED50 for HEXA
# Method: as §1, §2
# [4] = test system: Sandhoff (HEXB) disease and Tay-Sachs (HEXA) disease patient fibroblasts; experiment: Mean cytoplasmic autofluorescence in patient fibroblasts; conditions: Homo sapiens, Fibroblast, experimentally determined, read-out: autofluorescence ED50
# Method: as §1
# FIGS. 2D-1 and 2D-2 depict mean cytoplasmic autofluorescence for ruboxistaurin and sotrastaurin, respectively.
# [5] = GM2 aggregate counts (not mean fluorescence), Expmts 1936 and 1925, read-out: ED50 based on GM2 aggregate counts
# [6] = experimentally determined, patient fibroblasts, read-out: GM2 ganglioside ED50
Structure (SMILES),"EC50 [1, 5]","EC50 [1, 6]",other results
N#Cc1ccc2[nH]c(O)c(-c3ccc(CN4CCOCC4)cn3)c2c1 [AZD1080],1590 nM,,
Cn1cc(C2=C(c3cn(C4CCN(Cc5ccccn5)CC4)c4ccccc34)C(=O)NC2=O)c2ccccc21 [Enzastaurin],,,EC50 [2]: ~550 nM; EC50 [3]: ~265 nM
O=C1NC(=O)C(c2cnc3ccccn23)=C1c1cn2c3c(cc(F)cc13)CN(C(=O)N1CCCCC1)CC2 [LY2090314],8.76 nM,,
"CN(C)C[C@@H]1CCn2cc(c3ccccc32)C2=C(C(=O)NC2=O)c2cn(c3ccccc23)CCO1 [Ruboxistaurin, (18S)-18-[(dimethylamino)methyl]-17-oxa-4,14,21-triazahexacyclo[19.6.1.17,14.02,6.08,13.022,27]nonacosa-1(28),2(6),7(29),8,10,12,22,24,26-nonaene-3,5-dione]",,~300 nM,EC50 [4]: ~250 nM
CN1CCN(c2nc(C3=C(c4c[nH]c5ccccc45)C(=O)NC3=O)c3ccccc3n2)CC1 [Sotrastaurin],,~90 nM,
